B1: FUS: purified recombinant FUS protein (TP301808, Origene) (protein, UniProt P35637 1-526, looked up)
RNA-binding protein FUS: MASNDYTQQATQSYGAYPTQPGQGYSQQSSQPYGQQSYSGYSQSTDTSGYGQSSYSSYGQSQNTGYGTQSTPQGYGSTGGYGSSQSSQSSYGQQSSYPGYGQQPAPSSTSGSYGSSSQSSSYGQPQSGSYSQQPSYGGQQQSYGQQQSYNPPQGYGQQNQYNSSSGGGGGGGGGGNYGQDQSSMSSGGGSGGGYGNQDQSGGGGSGGYGQQDRGGRGRGGSGGGGGGGGGGYNRSSGGYEPRGRGGGRGGRGGMGGSDRGGFNKFGGPRDQGSRHDSEQDNSDNNTIFVQGLGENVTIESVADYFKQIGIIKTNKKTGQPMINLYTDRETGKLKGEATVSFDDPPSAKAAIDWFDGKEFSGNPIKVSFATRRADFNRGGGNGRGGRGRGGPMGRGGYGGGGSGGGGRGGFPSGGGGGGGQQRAGDWKCPNPTCENMNFSWRNECNQCKAPKPDGPGGGPGGSHMGGNYGDDRRGGRGGYDRGGYRGRGGDRGGFRGGRGGGDRGGFGPGKMDSRGEHRQDRRERPY
B2: EWSR1: purified recombinant EWSR1 protein (TP303709, Origene) (protein, UniProt Q01844 1-656, looked up)
RNA-binding protein EWS: MASTDYSTYSQAAAQQGYSAYTAQPTQGYAQTTQAYGQQSYGTYGQPTDVSYTQAQTTATYGQTAYATSYGQPPTGYTTPTAPQAYSQPVQGYGTGAYDTTTATVTTTQASYAAQSAYGTQPAYPAYGQQPAATAPTRPQDGNKPTETSQPQSSTGGYNQPSLGYGQSNYSYPQVPGSYPMQPVTAPPSYPPTSYSSTQPTSYDQSSYSQQNTYGQPSSYGQQSSYGQQSSYGQQPPTSYPPQTGSYSQAPSQYSQQSSSYGQQSSFRQDHPSSMGVYGQESGGFSGPGENRSMSGPDNRGRGRGGFDRGGMSRGGRGGGRGGMGSAGERGGFNKPGGPMDEGPDLDLGPPVDPDEDSDNSAIYVQGLNDSVTLDDLADFFKQCGVVKMNKRTGQPMIHIYLDKETGKPKGDATVSYEDPPTAKAAVEWFDGKDFQGSKLKVSLARKKPPMNSMRGGLPPREGRGMPPPLRGGPGGPGGPGGPMGRMGGRGGDRGGFPPRGPRGSRGNPSGGGNVQHRAGDWQCPNPGCGNQNFAWRTECNQCKAPKPEGFLPPPFPPPGGDRGRGGPGGMRGGRGGLMDRGGPGGMFRGGRGGDRGGFRGGRGMDRGGFGGGRRGGPGGPPGPLMEQMGGRRGGRGGPGKMDKGEHRQERRDRPY

Tests used:
[1] = tested on: U2OS cells with EWSR1 knockdown; assay: Cell viability, EWSR1-depleted U2OS cells; assay type: cell-based, human; conditions: U2OS siEWSR1 relative to U2OS siCtrl; 72 hours
Procedure: (§1) All transfections were carried out using Lipofectamine RNAiMax, Lipofectamine 3000 (Invitrogen) following manufacturer's instructions. For RNASEH1 transfections, 3×10^6 TC32 cells were transfected with 13 μg of plasmid DNA using Amaxa nucleofection (program X-001). Gene knockdowns were performed by reverse transfection whereas plasmid transfections were performed 24 hours after seeding. The siRNAs used in this study include: BRCA1 and EWSR1 (Life Technologies), EWSR1, BRCA1, FLI1, FUS, TAF15, 53BP1, FANCA, FANCD2 and FANCI (Santa Cruz). For some experiments, lentiviral transduction of TC32 with shCtrl (clone RHZ4743, Life Technologies) or shFLI1 (clone V2THS227524 or V3THS414176, Life Technologies) was performed. EWS-FLI1, EWS-FLI1 R2L2, EWS-ERG, EWSR1 (full length) and shEWSR1 in pMSCV vector were obtained from Dr. Stephen Lessnick. EWSR1 N terminal domain in pLX304 vector was purchased from DNASU. GFP-RNASEH1 and FLAG-RNASEH1 plasmids were a kind gift from Dr. Robert Crouch (Eunice Kennedy Shriver National Institute of Child Health and Human Development). HA-BRCA1 was obtained from Dr. Yuzuru Shiio (UTH-SA). ISceI in pCAGGS vector was a kind gift from Dr. Maria Jasin (Memorial Sloan Kettering Cancer Center) and Dr. Jeremy Stark (City of Hope Cancer Center). All siRNA and plasmid transfections were accompanied with control siRNA or empty vector respectively.
(§2) Cell viability. Cells were seeded at 30% confluence in 96 or 384 well plates with or without reverse transfection with siRNA. For plasmid expression, cells were transfected in 60 mm dishes first and then split into 96 or 384 well plates. The following day, the cells were treated to different drugs/inhibitors and cell viability was evaluated after 48 to 72 hours using Celltiter-Glo (Promega). Each condition was tested in triplicate. […] Drug screening data from an independently published study was obtained from http://www.cancerrxgene.org/.

EwS cell lines = assay: Cell viability (Celltiter-Glo) after drug exposure, EwS cell lines vs controls; assay type: cell-based, human; conditions: cell viability measured after 72 hours exposure, compared to controls IMR90 / U2OS
Procedure: Cell culture and transfections. Ewing sarcoma cell lines (TC32, CHLA10 and CHLA258) were obtained from Children's Oncology Group and EWS502 was obtained from Dr. Lessnick. Of note, TC32 is highly chemosensitive and CHLA10 was derived from a post-treatment recurrent chemoresistant tumor (Table 1). As controls, IMR90 (primary human neonatal fibroblast) and U2OS (pediatric Osteosarcoma) cell lines were obtained from ATCC. IMR90 and U2OS were cultured in DMEM (Corning), TC32, EWS502, RDES in […] (Corning), SKES1 in McCoys (Corning) and CHLA10, CHLA258 in IMDM (HyClone); all cultured media were supplemented with 10% FBS (Atlanta Biologicals) and 1% antibiotic/antimycotic solution (Corning). Cells were maintained at 37° C. in a humidified atmosphere with 5% CO2 and tested for mycoplasma contamination.
as §2

[2] = tested on: U2OS cells transfected with EWS-FLI1; assay: Cell viability, U2OS cells transfected with EWS-FLI1 vs empty vector; assay type: cell-based, human; conditions: compared to empty vector (EV) transfected cells
Procedure: as §1, with “ISceI in pCAGGS vector was a kind gift from Dr. Maria Jasin (Memorial Sloan Kettering Cancer Center) and Dr. Jeremy Stark (City of Hope Cancer Center). All siRNA and plasmid transfections were accompanied with control siRNA or empty vector respectively.” left out
Cell viability. […] The following day, the cells were treated to different drugs/inhibitors and cell viability was evaluated after 48 to 72 hours using Celltiter-Glo (Promega). […]

IMR90 cells = assay: Transcription recovery assay (EU incorporation), IMR90; assay type: cell-based, human; conditions: exposed for 2 or 16 hours, 30 min EU labeling
Procedure: (§3) Transcription Recovery Assay. […] Post-incubation, cells were fixed, permeabilized and subjected to Click-iT RNA reaction (Click-iT RNA Alexa Flour […] Imaging kit, ThermoFisher Scientific) according to manufacturer's instructions. Washed coverslips were mounted onto glass slides using ProLong Antifade Mounting Solution with DAPI (ThermoFisher Scientific) and imaged using a Zeiss microscope at 63×. A minimum of 100 cells were analyzed for each condition. Image analysis was performed using ImageJ.

TC32 cells = assay: Transcription recovery assay (EU incorporation), TC32; assay type: cell-based, human; conditions: exposed for 2 or 16 hours, 30 min EU labeling
Procedure: as §3

CDK9/cyclin T1 = target: T1, CDK9/cyclin T1 (Homo sapiens, UniProt P50750); assay: In vitro RNAPII phosphorylation assay (Adapta kinase assay), CDK9; assay type: biochemical; conditions: 1 μM recombinant protein; substrates CDKtide or RNAPII CTD fragment; relative to vehicle
T1 construct: purchased ThermoFisher Scientific PV4131
Procedure: In vitro RNAPII phosphorylation assay. The following purified recombinant proteins were purchased: RNAPII CTD fragment (POLR2A-1149H, Creative BioMart), EWSR1 (TP303709, Origene), FUS (TP301808, Origene), CDK9/cyclin T1 (PV4131, ThermoFisher Scientific) and CDK7/cyclin H/MNAT1 (ab64303, Abcam). The in vitro kinase assay was performed using the Adapta kinase assay (PV5099, ThermoFisher Scientific) according to manufacturer's instructions. The template used for kinase activity was either 50 μM CDK7/9tide provided in the kit (PV5090, ThermoFisher Scientific), or 12 ng RNAPII CTD fragment. 1 μM EWSR1 or FUS was added to the substrate and 10 μM ATP kinase buffer and pre-incubated for 15 min. 1.77 μg/ml CDK9/cyclin T1 or 5.6 μg/ml CDK7/cyclin H/MNAT1 were then added and the kinase reaction was allowed to proceed for a further 45 minutes. 10 μM ADP and 10 μM ATP served positive and negative controls. Finally, Eu-labeled antibody and Alexa Fluor-647-labeled tracer added and the level of ATP consumption was measured 30 minutes later using BMG Labtech Pherastar microplate reader. Each condition was tested in quadruplicate and the overall experiment was repeated at least 3 times for independent validation.

T1 sequence (P50750 whole entry, the tested form may be a part): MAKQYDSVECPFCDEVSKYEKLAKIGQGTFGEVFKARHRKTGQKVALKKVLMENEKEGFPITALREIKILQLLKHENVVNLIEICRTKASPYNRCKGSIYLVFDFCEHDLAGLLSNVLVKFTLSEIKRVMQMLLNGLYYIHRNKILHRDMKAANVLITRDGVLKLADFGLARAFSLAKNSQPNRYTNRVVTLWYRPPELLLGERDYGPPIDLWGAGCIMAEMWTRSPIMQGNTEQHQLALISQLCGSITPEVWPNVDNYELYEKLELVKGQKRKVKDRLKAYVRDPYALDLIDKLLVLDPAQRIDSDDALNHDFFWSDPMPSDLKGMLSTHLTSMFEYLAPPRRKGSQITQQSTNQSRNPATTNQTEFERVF
T1 sequence (O60563 whole entry partner, the tested form may be a part): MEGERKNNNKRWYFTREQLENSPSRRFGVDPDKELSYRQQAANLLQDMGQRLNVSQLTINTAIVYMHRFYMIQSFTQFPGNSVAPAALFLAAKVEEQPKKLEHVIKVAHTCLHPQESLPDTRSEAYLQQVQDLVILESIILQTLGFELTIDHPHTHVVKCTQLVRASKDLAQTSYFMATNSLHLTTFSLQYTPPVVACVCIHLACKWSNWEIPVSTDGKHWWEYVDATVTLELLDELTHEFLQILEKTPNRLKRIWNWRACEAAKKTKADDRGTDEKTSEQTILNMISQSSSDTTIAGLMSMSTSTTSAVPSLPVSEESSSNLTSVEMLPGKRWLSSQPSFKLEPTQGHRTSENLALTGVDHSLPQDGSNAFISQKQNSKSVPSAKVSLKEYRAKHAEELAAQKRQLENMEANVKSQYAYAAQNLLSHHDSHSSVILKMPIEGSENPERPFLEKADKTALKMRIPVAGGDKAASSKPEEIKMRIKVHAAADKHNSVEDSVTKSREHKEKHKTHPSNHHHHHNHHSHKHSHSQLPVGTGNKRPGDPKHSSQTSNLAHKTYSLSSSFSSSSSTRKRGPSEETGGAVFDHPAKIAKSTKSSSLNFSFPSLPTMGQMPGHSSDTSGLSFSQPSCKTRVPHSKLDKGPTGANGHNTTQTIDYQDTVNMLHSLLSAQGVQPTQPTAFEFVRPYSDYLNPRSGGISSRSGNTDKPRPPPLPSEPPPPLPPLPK

Molecule | sensitivity (cell viability) of EWSR1-depleted U2OS cells [1] | sensitivity (cell viability) of EwS cell lines compared to controls (EwS cell lines) | further results
CC[C@@]1(O)C(=O)OCc2c1cc1n(c2=O)Cc2cc3ccccc3nc2-1 [camptothecin] | much more sensitive | much more sensitive | –
O=c1c2ccccc2sn1-c1ccccc1 [R11] | – | significantly higher sensitivity | –
NC(=O)NO [hydroxyurea] | – | acutely sensitive | –
O=C(c1cc(Cc2n[nH]c(=O)c3ccccc23)ccc1F)N1CCN(C(=O)C2CC2)CC1 [Olaparib] | – | exquisite sensitivity | sensitivity (cell viability) of U2OS cells expressing EWS-FLI1 [2]: exquisite sensitivity; sensitivity (cell viability) of EwS cell lines compared to controls (EwS cell lines; listed as olaparib): acutely sensitive
OC[C@H]1O[C@@H](n2cnc3cc(Cl)c(Cl)cc32)[C@H](O)[C@@H]1O [DRB, 5,6-dichloro-1-β-D-ribofuranosyl-1H-benzimidazole] | much more sensitive | much more sensitive | –
COc1cc([C@@H]2c3cc4c(cc3[C@@H](O[C@@H]3O[C@@H]5CO[C@@H](C)O[C@H]5[C@H](O)[C@H]3O)[C@H]3COC(=O)[C@H]23)OCO4)cc(OC)c1O [etoposide] | – | acutely sensitive | transcriptional activity (EU incorporation) after exposure (IMR90 cells): decrease in EU incorporation two hours post-damage followed by recovery at 16 hours; transcriptional activity (EU incorporation) after exposure (TC32 cells): much delayed loss of transcription
CS(=O)(=O)c1ccc(-c2cnc(N)c(C(=O)Nc3ccccc3)n2)cc1 [VE-821] | significantly more sensitive | significantly more sensitive | sensitivity (cell viability) of U2OS cells expressing EWS-FLI1 [2]: significantly more sensitive
B1 | – | – | inhibition of phosphorylation of RNAPII CTD by CDK9 (CDK9/cyclin T1): inhibited
B2 | – | – | inhibition of phosphorylation of RNAPII CTD by CDK9 (CDK9/cyclin T1): inhibited
